Our source for the MIC values is ChEMBL document CHEMBL1151063, “Synthesis and antibacterial activity of 2-functionalized-vinyl 1-methylcarbapenems and related compounds” (1993).

Assay type in all cases: functional
The test system of experiment [1] is Pseudomonas aeruginosa. Put plainly: Antibacterial activity against Pseudomonas aeruginosa SR24.
Experiment [2] deals with Staphylococcus aureus. As to the kind of experiment: Antibacterial activity against Staphylococcus aureus FDA JC-1.
Experiment [3] deals with Enterococcus faecalis. As to the kind of experiment: Antibacterial activity against Streptococcus faecalis SR 1004.
Experiment [4] deals with Escherichia coli. Put plainly: Antibacterial activity against Escherichia coli NIHJ JC-2.
For experiment [5], the system named is Staphylococcus aureus. Put plainly: Minimum inhibitory concentration for antibacterial activity against low resistant group of methicillin-resistant Staphylococcus aureus SR-3131(LR).
The subject of experiment [6] is Enterobacter cloacae. Put plainly: Minimum inhibitory concentration for antibacterial activity against Enterobacter cloacae AI 3047.
Experiment [7] has as its system Serratia marcescens. Put plainly: Minimum inhibitory concentration for antibacterial activity against Serratia marcescens A13880.
The test system of experiment [8] is Staphylococcus aureus. As to the kind of experiment: Minimum inhibitory concentration for antibacterial activity against high resistant group of methicillin-resistant Staphylococcus aureus SR-3626(HR).
Experiment [9] has as its system Proteus vulgaris. Put plainly: Minimum inhibitory concentration for antibacterial activity against Proteus vulgaris CN-329, activity expressed as MIC.
Experiment [10] deals with Proteus vulgaris. As to the kind of experiment: Minimum inhibitory concentration for antibacterial activity against Proteus vulgaris CN-329.

In brackets after ≈: the same amount, converted by molar mass. A value given as a limit tells only on which side of the number the result lay.

The term MIC denotes the lowest concentration found to suppress growth. Low readings indicate inhibition by little substance, high ones a need for much substance. Take `C[C@@H]([O-])[C@H]1C(=O)N2C(C(=O)[O-])=C(/C=C/Cn3cc[n+]4ccccc34)[C@H](C)[C@H]12.[Na+]`: the minimal inhibitory concentration (MIC) in experiment [1] was 25 mg/L; in experiment [2], 0.02 mg/L; in [3], 0.8 mg/L; in experiment [4], 0.1 mg/L.

Turning to `Cc1ccc[n+](CC2=C(C(=O)[O-])N3C(=O)[C@H]([C@@H](C)O)[C@H]3[C@H]2C)c1`, the MIC in experiment [1] was 1.6 mg/L (≈ 5.06 µM); in experiment [2], 0.01 mg/L (≈ 0.0316 µM); in experiment [3] it was 12.5 mg/L (≈ 39.5 µM); in experiment [4], 0.2 mg/L (≈ 0.632 µM).

Turning to `C[C@@H](O)[C@H]1C(=O)N2C(C(=O)[O-])=C(/C=C/c3cccc[n+]3C)[C@H](C)[C@H]12`, the MIC in experiment [1] stood at 50 mg/L (≈ 152 µM); in experiment [2], 0.1 mg/L (≈ 0.305 µM); in experiment [3] it was 6.3 mg/L (≈ 19.2 µM); in experiment [4] it was 1.6 mg/L (≈ 4.87 µM).

`C[C@@H](O)[C@H]1C(=O)N2C(C(=O)[O-])=C(C[n+]3cccc(C(N)=O)c3)[C@H](C)[C@H]12`: the MIC in experiment [1] was determined as 1.6 mg/L (≈ 4.63 µM); in experiment [2], 0.02 mg/L (≈ 0.0579 µM); in [3], 25 mg/L (≈ 72.4 µM); in experiment [4] it was 0.4 mg/L (≈ 1.16 µM).

As for `C[C@@H](O)[C@H]1C(=O)N2C(C(=O)[O-])=C(/C=C/c3ccc[n+](C)c3)[C@H](C)[C@H]12`, the MIC in experiment [1] stood at 25 mg/L (≈ 76.1 µM); in [2] it was 0.01 mg/L (≈ 0.0305 µM); in [3], 0.2 mg/L (≈ 0.609 µM); in experiment [4], 0.1 mg/L (≈ 0.305 µM).

Turning to `C[C@@H]([O-])[C@H]1C(=O)N2C(C(=O)[O-])=C(/C=C/C[N+]34CCC(CC3)CC4)[C@H](C)[C@H]12.[Na+]`, the MIC in experiment [1] was 50 mg/L; in experiment [2] it was 0.02 mg/L; in experiment [3], 0.8 mg/L; in experiment [4] it was 0.2 mg/L.

`C/C(=C\C1=C(C(=O)[O-])N2C(=O)[C@H]([C@@H](C)O)[C@H]2[C@H]1C)C[n+]1ccccc1`: the MIC in [1] is 6.3 mg/L (≈ 18.4 µM); in experiment [2], 0.02 mg/L (≈ 0.0584 µM); in experiment [3], 0.8 mg/L (≈ 2.34 µM); in [4], 0.1 mg/L (≈ 0.292 µM).

Consider `C[C@@H](O)[C@H]1C(=O)N2C(C(=O)[O-])=C(/C=C/COC(N)=O)[C@H](C)[C@H]12.[Na+]`, for which the minimal inhibitory concentration (MIC) is 50 mg/L in experiment [1], 0.02 mg/L in experiment [2], 1.6 mg/L in experiment [3] and 0.2 mg/L in [4].

With `C[C@@H](O)[C@H]1C(=O)N2C(C(=O)[O-])=C(C[n+]3ccc(-c4cnco4)cc3)[C@H](C)[C@H]12`, the MIC worked out at 1.6 mg/L (≈ 4.33 µM) in experiment [1], 0.01 mg/L (≈ 0.0271 µM) in [2], 6.3 mg/L (≈ 17.1 µM) in experiment [3] and 0.2 mg/L (≈ 0.541 µM) in experiment [4].

Take `C[C@@H](O)[C@H]1C(=O)N2C(C(=O)[O-])=C(/C=C/c3cc[n+](C)cc3)[C@H](C)[C@H]12`: the MIC in experiment [1] was 25 mg/L (≈ 76.1 µM); in [2], 0.05 mg/L (≈ 0.152 µM); in experiment [3] it was 1.6 mg/L (≈ 4.87 µM); in [4], 0.4 mg/L (≈ 1.22 µM).

`C[C@@H](O)[C@H]1C(=O)N2C(C(=O)[O-])=C(C[n+]3ccccc3)[C@H](C)[C@H]12`: the MIC was 0.1 mg/L (≈ 0.331 µM) in experiment [5]; 1.6 mg/L (≈ 5.29 µM) in experiment [1]; less than 0.006 mg/L in experiment [2]; 0.2 mg/L (≈ 0.662 µM) in [6]; 6.3 mg/L (≈ 20.8 µM) in experiment [3]; 1.6 mg/L (≈ 5.29 µM) in experiment [7]. The minimum inhibitory concentration (MIC) in [4] came to 0.1 mg/L (≈ 0.331 µM); in experiment [8], 50 mg/L (≈ 165 µM); in experiment [9], 0.4 mg/L (≈ 1.32 µM).

Take `C[C@@H](O)[C@H]1C(=O)N2C(C(=O)O)=C(SCCNC=N)C[C@H]12` [IMIPENEM ANHYDROUS]: the MIC in experiment [5] was found to be 0.05 mg/L (≈ 0.167 µM); in experiment [1], 1.6 mg/L (≈ 5.34 µM); in [2], 0.006 mg/L (≈ 0.02 µM); in experiment [6] it was 0.4 mg/L (≈ 1.34 µM); in experiment [3], 1.6 mg/L (≈ 5.34 µM); in experiment [10], 0.4 mg/L (≈ 1.34 µM). Besides, the MIC in [7] was 0.8 mg/L (≈ 2.67 µM); in [4], 0.1 mg/L (≈ 0.334 µM); in experiment [8], 50 mg/L (≈ 167 µM).

Take `C[C@@H](O)[C@H]1C(=O)N2C(C(=O)[O-])=C(C[n+]3ccc(C(N)=O)cc3)[C@H](C)[C@H]12`: the MIC in experiment [1] amounted to 1.6 mg/L (≈ 4.63 µM); in [2], 0.02 mg/L (≈ 0.0579 µM); in experiment [3] it was 25 mg/L (≈ 72.4 µM); in experiment [4], 0.4 mg/L (≈ 1.16 µM).

For `C[C@@H]([O-])[C@H]1C(=O)N2C(C(=O)[O-])=C(/C=C/CSc3cc[n+](C)cc3)[C@H](C)[C@H]12.[Na+]`, the MIC in experiment [1] came out at 12.5 mg/L; in experiment [2] it was 0.01 mg/L; in [3], 0.4 mg/L; in [4], 0.2 mg/L.

Regarding `C[C@@H](O)[C@H]1C(=O)N2C(C(=O)[O-])=C(C[n+]3cccc(N)c3)[C@H](C)[C@H]12`, the MIC in experiment [1] is 1.6 mg/L (≈ 5.04 µM); in experiment [2], 0.006 mg/L (≈ 0.0189 µM); in [3], 6.3 mg/L (≈ 19.9 µM); in experiment [4] it was 0.2 mg/L (≈ 0.63 µM).

Take `C[C@@H](O)[C@H]1C(=O)N2C(C(=O)[O-])=C(/C=C/CSc3nncs3)[C@H](C)[C@H]12.[Na+]`: the MIC was 100 mg/L in experiment [1], 0.02 mg/L in experiment [2], 1.6 mg/L in experiment [3] and 3.1 mg/L in experiment [4].

Take `C[C@@H](O)[C@H]1C(=O)N2C(C(=O)[O-])=C(/C=C/C[n+]3ccccc3)[C@H](C)[C@H]12`: the MIC in experiment [5] came out at 0.05 mg/L (≈ 0.152 µM); in [1], 1.6 mg/L (≈ 4.87 µM); in experiment [2] it was 0.006 mg/L (≈ 0.0183 µM); in experiment [6], 0.2 mg/L (≈ 0.609 µM); in [3] it was 0.4 mg/L (≈ 1.22 µM); in [10], 0.2 mg/L (≈ 0.609 µM). Also, the MIC in [7] is 0.8 mg/L (≈ 2.44 µM); in experiment [4], 0.05 mg/L (≈ 0.152 µM); in experiment [8] it was 50 mg/L (≈ 152 µM).
